From US20240400555A1 (Initial Therapeutics, Inc., priority 2023, published 2024)

test system: MV-4-11 cells; experiment: Cell Viability Assay in MV-4-11 Cells; assay type: cell-based; conditions: Homo sapiens, MV4-11, 72 h
In short: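 MV-4-11 cells at 7,000/well in IMDM with 10% FBS, exposed to compound for 72 h. Viability by CellTiter-Glo luminescence, normalized to DMSO as 100%, fitted with a four-parameter curve.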

Row | Structure (SMILES) | IC50
1 | Cc1cccc2ccnc(N(C(=O)c3cccc(C#CCCC(=O)Nc4ccncc4)c3)[C@@H]3CCCNC3)c12 [Example 516, (R)—N-(8-methylisoquinolin-1-yl)-3-(5-oxo-5-(pyridin-4-ylamino)pent-1-yn-1-yl)-N-(piperidin-3-yl)benzamide] | 750 nM
2 | Cc1csc(-c2ccc(C(=O)N(c3nccc4cccc(C)c34)[C@@H]3CCCNC3)c(F)c2)n1 [Example 315, (R)-2-fluoro-N-(8-methylisoquinolin-1-yl)-4-(4-methylthiazol-2-yl)-N-(piperidin-3-yl)benzamide] | 240 nM

same assay, conditions: Homo sapiens, MV4-11, 72 h, MV-4-11 cells, 72 h, Cell-Titer Glo; read-out: IC50

Row | Structure (SMILES) | IC50
3 | O=C(c1ccc(-n2nnc3cccnc32)cc1F)N(c1nccc2sc(-c3ccc(O)cc3)cc12)[C@@H]1CCCNC1 [Example 377, (R)-4-(3H-[1,2,3]triazolo[4,5-b]pyridin-3-yl)-2-fluoro-N-(2-(4-hydroxyphenyl)thieno[3,2-c]pyridin-4-yl)-N-(piperidin-3-yl)benzamide] | 1300 nM
4 | CNC(=O)c1nc(-c2cc3c(N(C(=O)c4ccc(-n5nnc6cccnc65)cc4F)[C@@H]4CCCNC4)nccc3s2)cs1 [Example 527, 4-[4-[[2-fluoro-4-(triazolo[4,5-b]pyridin-3-yl)benzoyl]-[(3R)-3-piperidyl]amino]thieno[3,2-c]pyridin-2-yl]-N-methyl-thiazole-2-carboxamide] | 200 nM
5 | Cc1cc(C)c2c(N(C(=O)c3ccc(-c4nnc(C)o4)cc3F)[C@@H]3CCCNC3)nccc2c1 [Example 643, (R)—N-(6,8-dimethylisoquinolin-1-yl)-2-fluoro-4-(5-methyl-1,3,4-oxadiazol-2-yl)-N-(piperidin-3-yl)benzamide] | 64 nM
6 | Cc1cccc2ccnc(N(C(=O)c3ccc(Nc4nccc(N5CCC[C@H](O)C5)n4)cc3F)[C@@H]3CCCNC3)c12 [Example 624, 2-fluoro-4-((4-((S)-3-hydroxypiperidin-1-yl)pyrimidin-2-yl)amino)-N-(8-methylisoquinolin-1-yl)-N—((R)-piperidin-3-yl)benzamide] | 180 nM
7 | Cc1cc(-c2cn[nH]c2)cc2ccnc(N(C(=O)c3ccc(-n4nnc5cccnc54)cc3F)[C@@H]3CCCNC3)c12 [Example 422, (R)-4-(3H-[1,2,3]triazolo[4,5-b]pyridin-3-yl)-2-fluoro-N-(8-methyl-6-(1H-pyrazol-4-yl)isoquinolin-1-yl)-N-(piperidin-3-yl)benzamide] | 6.6 nM
8 | COCCn1cc(-c2ccc(C(=O)N(c3nccc4scc(C)c34)[C@@H]3CCCNC3)cc2)nn1 [Example 639, (R)-4-(1-(2-methoxyethyl)-1H-1,2,3-triazol-4-yl)-N-(3-methylthieno[3,2-c]pyridin-4-yl)-N-(piperidin-3-yl)benzamide] | 150 nM
9 | CC(O)c1ccc(-c2cc3c(N(C(=O)c4ccc(-n5nnc6cccnc65)cc4F)[C@@H]4CCCNC4)nccc3s2)cc1 (stereo partly drawn) [Example 600, 4-(3H-[1,2,3]triazolo[4,5-b]pyridin-3-yl)-2-fluoro-N-(2-(4-(1-hydroxyethyl)phenyl)thieno[3,2-c]pyridin-4-yl)-N—((R)-piperidin-3-yl)benzamide] | 270 nM
10 | Cn1cc(-c2ccc(C(=O)N(c3nccc4cccc(/C=C/c5cccnc5)c34)[C@@H]3CCCNC3)cc2)nn1 [Example 349, 4-(1-methyltriazol-4-yl)-N-[(3R)-3-piperidyl]-N-[8-[(E)-2-(3-pyridyl)vinyl]-1-isoquinolyl]benzamide] | 310 nM
11 | Cc1cccc2ccnc(N(C(=O)c3ccc(Nc4nccc(N5CCOCC5CN(C)C)n4)cc3F)[C@@H]3CCCNC3)c12 (stereo partly drawn) [Example 956, 4-(4-(3-((dimethylamino)methyl)morpholino)pyrimidin-2-ylamino)-2-fluoro-N-(8-methylisoquinolin-1-yl)-N—((R)-piperidin-3-yl)benzamide] | 360 nM
12 | CCc1nnc(-c2ccc(C(=O)N(c3nccc4cccc(C)c34)[C@@H]3CCCNC3)nc2)s1 [Example 673, 5-(5-ethyl-1,3,4-thiadiazol-2-yl)-N-(8-methyl-1-isoquinolyl)-N-[(3R)-3-piperidyl]pyridine-2-carboxamide] | 240 nM
13 | O=Cc1cccc(-c2cc3c(N(C(=O)c4ccc(-n5nnc6cccnc65)cc4F)[C@@H]4CCCNC4)nccc3s2)c1 [Example 467, 2-fluoro-N-[2-(3-formylphenyl)thieno[3,2-c]pyridin-4-yl]-N-[(3R)-3-piperidyl]-4-(triazolo[4,5-b]pyridin-3-yl)benzamide] | 220 nM
14 | Cc1nnc(-c2ccc(C(=O)N(c3nccc4cc(F)cc(C)c34)[C@@H]3CCCNC3)cn2)o1 [Example 918, N-(6-fluoro-8-methyl-1-isoquinolyl)-6-(5-methyl-1,3,4-oxadiazol-2-yl)-N-[(3R)-3-piperidyl]pyridine-3-carboxamide] | 170 nM
15 | COCCn1cc(-c2ccc(C(=O)N(c3nccc4cc(F)cc(C)c34)[C@@H]3CCCNC3)c(F)c2)nn1 [Example 850, 2-fluoro-N-(6-fluoro-8-methyl-1-isoquinolyl)-4-[1-(2-methoxyethyl)triazol-4-yl]-N-[(3R)-3-piperidyl]benzamide] | 52 nM
16 | Cc1cccc2ccnc(N(C(=O)c3ccc(Nc4nccc(CO)n4)cc3F)[C@@H]3CCCNC3)c12 [Example 321, (R)-2-fluoro-4-((4-(hydroxymethyl)pyrimidin-2-yl)amino)-N-(8-methylisoquinolin-1-yl)-N-(piperidin-3-yl)benzamide] | 780 nM
17 | CNc1nccc(-c2cc3c(N(C(=O)c4ccc(-c5cn(C)nn5)cc4F)[C@@H]4CCCNC4)nccc3s2)n1 [Example 531, (R)-2-fluoro-4-(1-methyl-1H-1,2,3-triazol-4-yl)-N-(2-(2-(methylamino)pyrimidin-4-yl)thieno[3,2-c]pyridin-4-yl)-N-(piperidin-3-yl)benzamide] | 430 nM
18 | Cn1cc(-c2ccc(C(=O)N(c3nccc4cc(Cl)ccc34)[C@@H]3CCCNC3)cc2)nn1 [Example 808, (R)—N-(6-chloroisoquinolin-1-yl)-4-(1-methyl-1H-1,2,3-triazol-4-yl)-N-(piperidin-3-yl)benzamide] | 420 nM
19 | O=C(c1ccc(-n2nnc3cccnc32)cc1F)N(c1nccc2sc(-c3cnn(-c4ccccn4)c3)cc12)[C@@H]1CCCNC1 [Example 435, 2-fluoro-N-[(3R)-3-piperidyl]-N-[2-[1-(2-pyridyl)pyrazol-4-yl]thieno[3,2-c]pyridin-4-yl]-4-(triazolo[4,5-b]pyridin-3-yl)benzamide] | 300 nM
20 | CCOC(=O)/C=C/c1cc2c(N(C(=O)c3ccc(-n4nnc5cccnc54)cc3F)[C@@H]3CCCNC3)nccc2s1 [Example 501, ethyl (E)-3-[4-[[2-fluoro-4-(triazolo[4,5-b]pyridin-3-yl)benzoyl]-[(3R)-3-piperidyl]amino]thieno[3,2-c]pyridin-2-yl]prop-2-enoate] | 800 nM
21 | Cn1cc(-c2ccc(C(=O)N(c3nccc4cc(C#N)ccc34)[C@@H]3CCCNC3)c(F)c2)nn1 [Example 472, (R)—N-(6-cyanoisoquinolin-1-yl)-2-fluoro-4-(1-methyl-1H-1,2,3-triazol-4-yl)-N-(piperidin-3-yl)benzamide] | 580 nM
22 | CCOc1cc(C)c2c(N(C(=O)c3ccc(-c4nnc(C)s4)cn3)[C@@H]3CCCNC3)nccc2c1 [Example 865, N-(6-ethoxy-8-methyl-1-isoquinolyl)-5-(5-methyl-1,3,4-thiadiazol-2-yl)-N-[(3R)-3-piperidyl]pyridine-2-carboxamide] | 150 nM
23 | COC(=O)c1cnc(Nc2ccc(C(=O)N(c3nccc4cccc(C)c34)[C@@H]3CCCNC3)c(F)c2)nc1 [Example 929, methyl (R)-2-((3-fluoro-4-((8-methylisoquinolin-1-yl)(piperidin-3-yl)carbamoyl)phenyl)amino)pyrimidine-5-carboxylate] | 110 nM
24 | Cc1csc2ccnc(N(C(=O)c3ccc(-c4cc(Cl)cnn4)cc3F)[C@@H]3CCCNC3)c12 [Example 768, (R)-4-(5-chloropyridazin-3-yl)-2-fluoro-N-(3-methylthieno[3,2-c]pyridin-4-yl)-N-(piperidin-3-yl)benzamide] | 92 nM
25 | Cc1cc(C)c2c(N(C(=O)c3ccc(-c4cn(C)nn4)cc3F)[C@@H]3CCCNC3)nccc2c1 [Example 702, (R)—N-(6,8-dimethylisoquinolin-1-yl)-2-fluoro-4-(1-methyl-1H-1,2,3-triazol-4-yl)-N-(piperidin-3-yl)benzamide] | 25 nM
26 | Cn1cc(-c2ccc(C(=O)N(c3nccc4cccc(Cl)c34)[C@@H]3CCCNC3)cc2)nn1 [Example 800, (R)—N-(8-chloroisoquinolin-1-yl)-4-(1-methyl-1H-1,2,3-triazol-4-yl)-N-(piperidin-3-yl)benzamide] | 170 nM
27 | Cn1cc(-c2ccc(C(=O)N(c3nccc4c(F)cccc34)[C@@H]3CCCNC3)c(F)c2)nn1 [Example 759, (R)-2-fluoro-N-(5-fluoroisoquinolin-1-yl)-4-(1-methyl-1H-1,2,3-triazol-4-yl)-N-(piperidin-3-yl)benzamide] | 520 nM
28 | Cc1cc(Cl)cc2ccnc(N(C(=O)c3ccc(-c4nnn(C)c4C)cc3)[C@@H]3CCCNC3)c12 [Example 771, (R)—N-(6-chloro-8-methylisoquinolin-1-yl)-4-(1,5-dimethyl-1H-1,2,3-triazol-4-yl)-N-(piperidin-3-yl)benzamide] | 140 nM
29 | Cc1c(-c2ccc(C(=O)N(c3nccc4sc(-c5ccc(C(N)=O)cc5)cc34)[C@@H]3CCCNC3)c(F)c2)nnn1C [Example 819, N-[2-(4-carbamoylphenyl)thieno[3,2-c]yridine-4-yl]-4-(1,5-dimethyltriazol-4-yl)-2-fluoro-N-[(3R)-3-piperidyl]benzamide] | 1000 nM
30 | NC(=O)c1cccc(-c2cc3c(N(C(=O)c4ccc(-n5nnc6cccnc65)cc4F)[C@@H]4CCCNC4)nccc3s2)c1 [Example 452, N-[2-(3-carbamoylphenyl)thieno[3,2-c]pyridin-4-yl]-2-fluoro-N-[(3R)-3-piperidyl]-4-(triazolo[4,5-b]pyridin-3-yl)benzamide] | 180 nM
